Experimental data as given in ChEMBL document CHEMBL3046513, “Synthesis, characterization, and biological evaluation of some N-aryl hydrazones and their 2,3-disubstituted-4-thiazolidinone derivatives” (Med Chem Res, 2013).
Values after ≈ are worked out from the molar mass of the structure shown. Active and inactive are the calls of the source. The calls are words filed in the database; no cut-off is given here.

What was measured:
Assay type in all cases: functional
[1] = test system: Candida albicans; test: Antifungal activity against Candida albicans assessed as growth inhibition by serial plate dilution method
[2] = test system: Bacillus cereus; test: Antibacterial activity against Bacillus cereus assessed as growth inhibition by serial plate dilution method
[3] = test system: Pseudomonas aeruginosa; test: Antibacterial activity against Pseudomonas aeruginosa ATCC 27853 assessed as growth inhibition by serial plate dilution method
[4] = test system: Staphylococcus aureus; test: Antibacterial activity against Staphylococcus aureus ATCC 25923 assessed as growth inhibition by serial plate dilution method
[5] = test system: Escherichia coli; test: Antibacterial activity against Escherichia coli ATCC 25922 assessed as growth inhibition by serial plate dilution method
[6] = test system: Mus musculus; test: Analgesic activity in Mus musculus […] albino (mouse) assessed as time taken to tail withdrawl at 100 mg/kg, po administered through intragastric tube after 180 min by tail flick test (reference value: 1.363 +/- 0.1297 secs)
[7] = test system: Mus musculus; test: Analgesic activity in Mus musculus […] albino (mouse) assessed as time taken to tail withdrawl at 100 mg/kg, po administered through intragastric tube after 120 min by tail flick test (reference value: 1.363 +/- 0.1297 secs)
[8] = test system: Mus musculus; test: Analgesic activity in Mus musculus […] albino (mouse) assessed as time taken to tail withdrawl at 100 mg/kg, po administered through intragastric tube after 60 min by tail flick test (reference value: 1.363 +/- 0.1297 secs)
[9] = test system: Rattus norvegicus; test: Anti-inflammatory activity in Rattus norvegicus (rat) assessed as decrease in carrageenan-induced paw edema at 100 mg/kg, po administered 30 min prior to carrageenan challenge measured after 180 min (reference value: 2.275 +/- 0.1181 mm)
[10] = test system: Rattus norvegicus; test: Anti-inflammatory activity in Rattus norvegicus (rat) assessed as decrease in carrageenan-induced paw edema at 100 mg/kg, po administered 30 min prior to carrageenan challenge measured after 120 min (reference value: 2.375 +/- 0.1436 mm)
[11] = test system: Rattus norvegicus; test: Anti-inflammatory activity in Rattus norvegicus (rat) assessed as decrease in carrageenan-induced paw edema at 100 mg/kg, po administered 30 min prior to carrageenan challenge measured after 60 min (reference value: 2.175 +/- 0.1797 mm)
[12] = test system: Radical scavenging activity; test: Antioxidant activity assessed as inhibition of DPPH radical generation at 800 ug/mL after 20 min by spectrophotometric analysis relative to control
[13] = test system: Radical scavenging activity; test: Antioxidant activity assessed as inhibition of DPPH radical generation at 400 ug/mL after 20 min by spectrophotometric analysis relative to control
[14] = test system: Radical scavenging activity; test: Antioxidant activity assessed as inhibition of DPPH radical generation at 200 ug/mL after 20 min by spectrophotometric analysis relative to control

Row | SMILES | MIC [1] [µg/mL] | MIC [2] [µg/mL] | MIC [3] [µg/mL] | MIC [4] [µg/mL] | MIC [5] [µg/mL] | Time [6] [s] | Time [7] [s] | Time [8] [s] | Activity [9] [mm] | Activity [10] [mm] | Activity [11] [mm] | inhibition [12] [%] | inhibition [13] [%] | inhibition [14]
1 | COc1ccc(Br)c(C(=O)NN2C(=O)CSC2c2ccc(Cl)cc2)c1 (stereo not given) | 12.5 (≈ 28.3 µM) | 12.5 (≈ 28.3 µM) | 3.12 (≈ 7.07 µM) | 12.5 (≈ 28.3 µM) | 12.5 (≈ 28.3 µM) | 2.463 | 2.788 | 2.613 | 2.25 | 2.25 | 2.15 | 58.2 | 58.2 | 57.5%
2 | O=C(O)Cc1ccccc1Nc1c(Cl)cccc1Cl [DICLOFENAC] | – | – | – | – | – | – | – | – | 0.625 | 0.625 | 0.6 | – | – | –
3 | COc1ccc(Br)c(C(=O)N/N=C\c2ccccc2O)c1 | 6.25 (≈ 17.9 µM) | 12.5 (≈ 35.8 µM) | 6.25 (≈ 17.9 µM) | 12.5 (≈ 35.8 µM) | 6.25 (≈ 17.9 µM) | – | – | – | – | – | – | – | – | –
4 | COc1ccc(Br)c(C(=O)NN2C(=O)CSC2c2ccc(F)cc2)c1 (stereo not given) | 6.25 (≈ 14.7 µM) | 6.25 (≈ 14.7 µM) | 12.5 (≈ 29.4 µM) | 12.5 (≈ 29.4 µM) | 6.25 (≈ 14.7 µM) | 3.241 | 3.421 | 2.923 | 2.2 | 2.05 | 2 | 57.1 | 51 | 37.8%
5 | COc1ccc(Br)c(C(=O)NN2C(=O)CSC2c2cccnc2)c1 (stereo not given) | 3.12 (≈ 7.65 µM) | 6.25 (≈ 15.3 µM) | 6.25 (≈ 15.3 µM) | 6.25 (≈ 15.3 µM) | 6.25 (≈ 15.3 µM) | 2.938 | 3.6 | 3.25 | 1.9 | 1.75 | 1.45 | 25.1 | 23.5 | 21.6%
6 | COc1ccc(Br)c(C(=O)N/N=C\c2ccccc2Cl)c1 | 6.25 (≈ 17 µM) | 6.25 (≈ 17 µM) | 6.25 (≈ 17 µM) | 12.5 (≈ 34 µM) | 6.25 (≈ 17 µM) | – | – | – | – | – | – | – | – | –
7 | COc1ccc(Br)c(C(=O)N/N=C\c2ccc([N+](=O)[O-])cc2)c1 | 3.12 (≈ 8.26 µM) | 6.25 (≈ 16.5 µM) | 6.25 (≈ 16.5 µM) | 12.5 (≈ 33.1 µM) | 6.25 (≈ 16.5 µM) | – | – | – | – | – | – | – | – | –
8 | COc1ccc(C2SCC(=O)N2NC(=O)c2cc(OC)ccc2Br)c(OC)c1 (stereo not given) | 3.12 (≈ 6.69 µM) | 6.25 (≈ 13.4 µM) | 6.25 (≈ 13.4 µM) | 12.5 (≈ 26.7 µM) | 12.5 (≈ 26.7 µM) | 2.388 | 3.075 | 3.175 | 1.9 | 2.15 | 2.125 | 71 | 33.2 | 15.9%
9 | COc1ccc(Br)c(C(=O)N/N=C\c2cccnc2)c1 | 3.12 (≈ 9.35 µM) | 6.25 (≈ 18.7 µM) | 6.25 (≈ 18.7 µM) | 6.25 (≈ 18.7 µM) | 6.25 (≈ 18.7 µM) | – | – | – | – | – | – | – | – | –
10 | COc1ccc(C2SCC(=O)N2NC(=O)c2cc(OC)ccc2Br)cc1 (stereo not given) | 6.25 (≈ 14.3 µM) | 6.25 (≈ 14.3 µM) | 6.25 (≈ 14.3 µM) | 6.25 (≈ 14.3 µM) | 12.5 (≈ 28.6 µM) | 2.513 | 2.575 | 2.388 | 1.875 | 1.75 | 1.6 | 59.5 | 58.2 | 57.5%
11 | CC(C)=CCN1CC[C@]2(C)c3cc(O)ccc3C[C@H]1[C@H]2C [(+)-PENTAZOCINE] | – | – | – | – | – | 7.025 | 6.863 | 7.075 | – | – | – | – | – | –
12 | COc1ccc(Br)c(C(=O)N/N=C\c2cccc(Cl)c2)c1 | 6.25 (≈ 17 µM) | 12.5 (≈ 34 µM) | 6.25 (≈ 17 µM) | 25 (≈ 68 µM) | 12.5 (≈ 34 µM) | – | – | – | – | – | – | – | – | –
13 | COc1ccc(Br)c(C(=O)NN2C(=O)CSC2c2ccc([N+](=O)[O-])cc2)c1 (stereo not given) | 6.25 (≈ 13.8 µM) | 6.25 (≈ 13.8 µM) | 12.5 (≈ 27.6 µM) | 6.25 (≈ 13.8 µM) | 6.25 (≈ 13.8 µM) | 2.663 | 3.263 | 3.375 | 1.975 | 1.8 | 1.45 | 13 | 5.81 | inactive
14 | COc1ccc(Br)c(C(=O)NN2C(=O)CSC2c2ccc(-c3ccccc3)cc2)c1 (stereo not given) | 6.25 (≈ 12.9 µM) | 6.25 (≈ 12.9 µM) | 6.25 (≈ 12.9 µM) | 12.5 (≈ 25.9 µM) | 6.25 (≈ 12.9 µM) | 3.113 | 3.313 | 2.988 | 2.075 | 1.875 | 1.45 | 62.5 | 39.9 | 15.3%
15 | COc1ccc(Br)c(C(=O)N/N=C\c2ccc(-c3ccccc3)cc2)c1 | 12.5 (≈ 30.5 µM) | 25 (≈ 61.1 µM) | 6.25 (≈ 15.3 µM) | 25 (≈ 61.1 µM) | 25 (≈ 61.1 µM) | – | – | – | – | – | – | – | – | –
16 | COc1ccc(Br)c(C(=O)NN2C(=O)CSC2C2=C(Cl)c3ccccc3C(c3ccc(Cl)c(Cl)c3)C2)c1 (stereo not given) | 6.25 (≈ 9.78 µM) | 12.5 (≈ 19.6 µM) | 6.25 (≈ 9.78 µM) | 6.25 (≈ 9.78 µM) | 12.5 (≈ 19.6 µM) | 2.338 | 3.388 | 3.463 | 2.025 | 2.175 | 2.025 | – | – | –
